Measurements reported in the supplement of paper PMC10307832.

Columns and labels:
Assay in all cases: relative viability (nuclei count vs DMSO), 5 days (fraction); higher = more cells survive
[1] = compound: CN(c1ncccc1CNc1nc(Nc2ccc3c(c2)CC(=O)N3)ncc1C(F)(F)F)S(C)(=O)=O + CS(=O)(=O)N1CCN(Cc2cc3nc(-c4cccc5[nH]ncc45)nc(N4CCOCC4)c3s2)CC1 [Pictilisib] (partner 1 µM)
How it was run: (§1)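 Lung cancer cell lines were seeded in 1536-well plates and dosed by pin tool the next day, with either a single drug or a fixed anchor-drug dose combined with five library-drug doses (not always all listed) spaced in √10 steps. Five days later, one step fixed the cells and stained their nuclei (final 0.05% Triton X-100, 1% formaldehyde, 1 ug/ml Hoechst), and nuclei were counted on 4× images. Relative viability is the nuclei count in treated wells divided by the count in vehicle wells, and each value is the median of duplicate plates.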

[2] = compound: CN(c1ncccc1CNc1nc(Nc2ccc3c(c2)CC(=O)N3)ncc1C(F)(F)F)S(C)(=O)=O + CC(=O)c1c(C)c2cnc(Nc3ccc(N4CCNCC4)cn3)nc2n(C2CCCC2)c1=O [Palbociclib] (partner 0.5 µM)
How it was run: as §1

[3] = compound: CN(c1ncccc1CNc1nc(Nc2ccc3c(c2)CC(=O)N3)ncc1C(F)(F)F)S(C)(=O)=O + COc1cccc2cc(-c3nc([C@H]4CC[C@H](C(=O)O)CC4)n4ncnc(N)c34)[nH]c12 [OSI-027] (partner 0.5 µM)
How it was run: as §1

[4] = compound: CN(c1ncccc1CNc1nc(Nc2ccc3c(c2)CC(=O)N3)ncc1C(F)(F)F)S(C)(=O)=O + CCNC(=O)c1noc(-c2cc(C(C)C)c(O)cc2O)c1-c1ccc(CN2CCOCC2)cc1 [Luminespib] (partner 0.01 µM)
How it was run: as §1

Cell Line | relative viability ([1]; first compound 0.01 µM) | relative viability ([1]; first compound 0.03162 µM) | relative viability ([1]; first compound 0.1 µM) | relative viability ([1]; first compound 0.3162 µM) | relative viability ([1]; first compound 1 µM) | relative viability ([2]; first compound 0.01 µM) | relative viability ([2]; first compound 0.03162 µM) | relative viability ([2]; first compound 0.1 µM) | relative viability ([2]; first compound 0.3162 µM) | relative viability ([2]; first compound 1 µM) | relative viability ([3]; first compound 0.01 µM) | relative viability ([3]; first compound 0.03162 µM) | relative viability ([3]; first compound 0.1 µM) | relative viability ([3]; first compound 0.3162 µM) | relative viability ([3]; first compound 1 µM) | relative viability ([4]; first compound 0.01 µM) | relative viability ([4]; first compound 0.03162 µM) | relative viability ([4]; first compound 0.1 µM) | relative viability ([4]; first compound 0.3162 µM) | relative viability ([4]; first compound 1 µM)
NCI-H2126 | 0.495 | 0.469 | 0.452 | 0.533 | 0.459 | 0.358 | 0.351 | 0.308 | 0.352 | 0.306 | 0.753 | 0.719 | 0.638 | 0.712 | 0.633 | 0.905 | 0.9 | 0.778 | 0.941 | 0.761
HCC-44 | 0.478 | 0.623 | 0.617 | 0.678 | 0.658 | 0.83 | 0.953 | 0.943 | 0.907 | 0.867 | 0.575 | 0.491 | 0.496 |  | 0.703 | 1.04 | 1.5 | 1.24 |  | 0.933
NCI-H460 | 0.338 | 0.425 | 0.437 | 0.367 | 0.418 | 0.147 | 0.179 | 0.148 | 0.21 | 0.15 | 0.666 | 0.964 | 0.691 | 0.705 | 0.665 | 0.0312 | 0.0306 | 0.0284 | 0.0265 | 0.0325
SK-LU-1 | 0.519 | 0.53 | 0.473 | 0.554 | 0.423 | 0.405 | 0.358 | 0.398 | 0.401 | 0.369 | 0.343 | 0.411 | 0.371 | 0.351 | 0.284 | 0.197 | 0.208 | 0.214 | 0.172 | 0.209
NCI-H322M | 0.495 | 0.48 |  | 0.593 | 0.553 | 0.481 | 0.503 | 0.529 | 0.475 | 0.488 | 0.562 | 0.598 | 0.537 | 0.599 | 0.623 | 0.798 | 1 | 0.966 | 1.03 | 0.896
EKVX | 0.462 | 0.422 | 0.418 | 0.375 | 0.431 | 0.369 | 0.372 | 0.359 | 0.285 | 0.352 | 0.757 | 0.711 | 0.618 | 0.685 | 0.614 | 0.923 | 1.03 | 0.839 | 0.869 | 0.786
NCI-H1734 | 0.418 | 0.555 | 0.454 | 0.468 | 0.475 | 0.35 | 0.327 | 0.345 | 0.348 | 0.304 | 0.581 | 0.612 | 0.534 | 0.609 | 0.545 | 0.198 | 0.178 | 0.184 | 0.227 | 0.18
ABC-1 | 0.74 | 0.822 | 0.746 | 0.952 | 0.847 | 0.608 | 0.609 | 0.725 | 0.814 | 0.676 | 0.424 | 0.537 | 0.432 | 0.498 | 0.499 | 0.557 | 0.985 | 0.511 | 0.524 | 0.516
NCI-H520 | 0.285 | 0.386 | 0.322 | 0.277 | 0.379 | 0.27 | 0.209 | 0.244 | 0.262 | 0.24 | 0.339 | 0.331 | 0.244 | 0.321 | 0.344 | 0.209 | 0.242 | 0.205 | 0.2 | 0.183
EPLC-272H | 0.256 | 0.269 | 0.298 | 0.209 | 0.336 | 0.366 | 0.357 | 0.358 | 0.353 | 0.299 | 0.276 | 0.294 | 0.305 | 0.344 | 0.279 | 0.6 | 0.487 | 0.265 | 0.317 | 0.251
UMC-11 | 0.759 | 0.843 | 0.793 | 0.847 | 0.708 | 0.316 | 0.346 | 0.394 | 0.317 | 0.34 | 0.461 | 0.477 | 0.45 | 0.459 | 0.421 | 0.928 | 0.998 | 0.97 | 1.11 | 0.924
NCI-H1792 | 0.263 | 0.281 | 0.323 | 0.306 | 0.332 | 0.627 | 0.783 | 0.63 | 0.637 | 0.602 | 0.787 | 0.892 | 0.736 | 0.697 | 0.688 | 0.387 | 0.54 | 0.467 | 0.451 | 0.359
NCI-H1993 | 0.832 | 0.754 | 0.856 | 0.828 | 0.775 | 0.479 | 0.64 | 0.669 | 0.652 | 0.597 | 0.456 | 0.508 | 0.5 | 0.541 | 0.525 | 0.859 | 0.849 | 0.752 | 0.755 | 0.65
NCI-H1793 | 0.285 | 0.393 | 0.208 | 0.319 | 0.265 | 0.314 | 0.321 | 0.328 | 0.341 | 0.324 | 0.238 | 0.276 | 0.246 | 0.288 | 0.297 | 0.218 | 0.181 | 0.212 | 0.175 | 0.138
